US10329295B2, “Pyrrolotriazine inhibitors of IRAK4 activity” (MERCK SHARP & DOHME CORP., priority 2015, dated 2019)
Where a name gives a salt, the structure may show the parent alone.

target: GST tagged IRAK4 (Homo sapiens (Human), UniProt Q9NWZ3); test: IRAK4 Kinase Assay (IMAP fluorescence polarization); format: biochemical; conditions: 0.5 nM GST tagged IRAK4, 100 μM ATP, 30 minutes at 25° C.
Experimental: The kinase activity of IRAK4 is determined by its ability to catalyze the phosphorylation of a fluorescent polypeptide substrate. The extent of phosphorylation is measured using the IMAP technology (Molecular Devices) where the phosphorylated fluorescent substrate binds to the large M(III)-based nanoparticles which reduces the rotational speed of the substrate and thus increases its fluorescent polarization (FP).
20 μL reaction mixture contains 10 mM TriHCl, pH 7.2, 0.5 nM GST tagged IRAK4 (SignalChem), 100 nM fluorescent peptide substrate (RP7030, Molecular Devices), 100 μM ATP, 1 mM DDT, 1 mM MgCl2, and 0.01% Tween 20. The reaction is initiated by the addition of ATP. After incubation for 30 minutes at 25° C., 60 μL of Progressive IMAP Reagent (Molecular Devices) is added to stop the reaction. Change in RP7030's FP is determined by a FP reader (Analyst HT, LJL BioSystems).

GST tagged IRAK4, sequence (Q9NWZ3 whole entry): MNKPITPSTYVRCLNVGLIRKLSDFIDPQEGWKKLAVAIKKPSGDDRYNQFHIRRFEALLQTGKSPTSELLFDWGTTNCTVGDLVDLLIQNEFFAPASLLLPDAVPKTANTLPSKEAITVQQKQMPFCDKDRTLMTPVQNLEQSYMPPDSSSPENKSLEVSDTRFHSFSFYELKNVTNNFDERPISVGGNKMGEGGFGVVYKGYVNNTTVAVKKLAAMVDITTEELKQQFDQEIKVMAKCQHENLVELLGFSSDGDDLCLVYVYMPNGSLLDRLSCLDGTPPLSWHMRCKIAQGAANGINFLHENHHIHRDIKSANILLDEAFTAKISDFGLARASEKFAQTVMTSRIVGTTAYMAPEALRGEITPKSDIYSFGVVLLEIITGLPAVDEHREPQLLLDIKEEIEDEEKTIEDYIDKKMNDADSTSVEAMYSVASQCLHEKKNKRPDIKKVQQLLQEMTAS

IC50 [nM] | Structure (SMILES)
3650 | Cn1cc(NC(=O)c2ccc3cnc(N[C@H]4CCC(F)(F)C[C@H]4N)nn23)c(C(F)F)n1 (single isomer, unassigned) [Example 129, 2-{[(1S,2R)- or (1R,2S)-2-amino-4,4-difluorocyclohexyl]amino}-N-[3-(difluoromethyl)-1-methyl-1H-pyrazol-4-yl]pyrrolo[2,1-f][1,2,4]triazine-7-carboxamide]
655 | Cn1cc(NC(=O)c2ccc3cnc(N[C@@H]4CCC(F)(F)C[C@@H]4N)nn23)c(C(F)(F)F)n1 (single isomer, unassigned) [Example 132, 2-{[(1S,2R)- or (1R,2S)-2-amino-4,4-difluorocyclohexyl]amino}-N-[1-methyl-3-(trifluoromethyl)-1H-pyrazol-4-yl]pyrrolo[2,1-f][1,2,4]triazine-7-carboxamide trifluoroacetate]
3 | Cn1cc(NC(=O)c2ccc3cnc(N[C@@H]4CC(F)(F)CC[C@@H]4N)nn23)c(C(F)F)n1 (single isomer, unassigned) [Example 140, 2-{[(1S,2R)- or (1R,2S)-2-amino-5,5-difluorocyclohexyl]amino}-N-[3-(difluoromethyl)-1-methyl-1H-pyrazol-4-yl]pyrrolo[2,1-f][1,2,4]triazine-7-carboxamide]
20 | Cn1cc(NC(=O)c2ccc3cnc(N4C[C@@H](N)C[C@@H](F)C4)nn23)c(C(F)(F)F)n1 [Example 148, 2-[(3S,5R)-3-amino-5-fluoropiperidin-1-yl]-N-[1-methyl-3-(trifluoromethyl)-1H-pyrazol-4-yl]pyrrolo[2,1-f][1,2,4]triazine-7-carboxamide]
396 | N#Cc1sccc1NC(=O)c1ccc2cnc(N[C@@H]3CCCC[C@@H]3O)nn12 [Example 147, N-(2-cyanothiophen-3-yl)-2-{[(1R,2S)-2-hydroxycyclohexyl]amino}-pyrrolo[2,1-f][1,2,4]triazine-7-carboxamide]
120 | N#Cc1cscc1NC(=O)c1ccc2cnc(N[C@@H]3CCCC(F)(F)[C@@H]3N)nn12 [Example 153, 2-{[(1R,2R)-2-amino-3,3-difluorocyclohexyl]amino}-N-(4-cyanothiophen-3-yl)pyrrolo[2,1-f][1,2,4]triazine-7-carboxamide trifluoroacetate]
0.8 | Cn1cc(NC(=O)c2ccc3cnc(N4C[C@H](N)C[C@@H](F)C4)nn23)c(C(F)(F)F)n1 [Example 149, 2-[(3R,5R)-3-amino-5-fluoropiperidin-1-yl]-N-[1-methyl-3-(trifluoromethyl)-1H-pyrazol-4-yl]pyrrolo[2,1-f][1,2,4]triazine-7-carboxamide trifluoroacetate]
0.8 | Cn1cc(NC(=O)c2ccc3cnc(N[C@@H]4CCCNC4)nn23)c(C#N)n1 [Example 124, N-(3-cyano-1-methyl-1H-pyrazol-4-yl)-2-[(3R)-piperidin-3-ylamino]pyrrolo[2,1-f][1,2,4]triazine-7-carboxamide trifluoroacetate]
18 | Cn1cc(NC(=O)c2ccc3cnc(N[C@H]4CNC[C@H](F)C4)nn23)c(C(F)(F)F)n1 [Example 162, 2-{[(3R,5R)-5-fluoropiperidin-3-yl]amino}-N-[1-methyl-3-(trifluoromethyl)-1H-pyrazol-4-yl]pyrrolo[2,1-f][1,2,4]triazine-7-carboxamide trifluoroacetate]
1270 | N[C@@H]1[C@H](Nc2ncc3ccc(C(=O)Nc4cscc4Cl)n3n2)CCCC1(F)F [Example 126, 2-{[(1R,2R)-2-amino-3,3-difluorocyclohexyl]amino}-N-(4-chlorothiophen-3-yl)pyrrolo[2,1-f][1,2,4]triazine-7-carboxamide trifluoroacetate]
9 | N#Cc1cscc1NC(=O)c1ccc2cnc(N3CCC[C@H](N)C3)nn12 [Example 143, 2-[(3S)-3-aminopiperidin-1-yl]-N-(4-cyanothiophen-3-yl)pyrrolo[2,1-f][1,2,4]triazine-7-carboxamide trifluoroacetate]

The remaining lines, values behind:

Structure (SMILES) | IC50 [nM]
N#Cc1ccccc1NC(=O)c1ccc2cnc(N3CCNCC3)nn12 [Example 58, N-(2-cyanophenyl)-2-piperazin-1-ylpyrrolo[2,1-f][1,2,4]triazine-7-carboxamide trifluoroacetate] | 1910
N[C@H]1CCCC[C@H]1Nc1ncc2ccc(C(=O)Nc3cscc3Br)n2n1 [Example 14, 2-{[(1R,2S)-2-aminocyclohexyl]amino}-N-(4-bromothiophen-3-yl)pyrrolo[2,1-f][1,2,4]triazine-7-carboxamide trifluoroacetate] | 6
Cn1cc(NC(=O)c2ccc3cnc(N4C5CCC4CNC5)nn23)c(C(F)(F)F)n1 [Example 96, 2-(3,8-diazabicyclo[3.2.1]oct-8-yl)-N-[1-methyl-3-(trifluoromethyl)-1H-pyrazol-4-yl]pyrrolo[2,1-f][1,2,4]triazine-7-carboxamide trifluoroacetate] | 5
N#Cc1ccccc1NC(=O)c1ccc2cnc(N[C@@H]3CCCC[C@@H]3O)nn12 [Example 71, N-(2-cyanophenyl)-2-{[(1R,2S)-2-hydroxycyclohexyl]amino}-pyrrolo[2,1-f][1,2,4]triazine-7-carboxamide] | 661
N#Cc1ccccc1NC(=O)c1ccc2cnc(N[C@H]3CCCCNC3)nn12 (single isomer, unassigned) [Example 60, 2-[(3S)- or (3R)-azepan-3-ylamino]-N-(2-cyanophenyl)pyrrolo[2,1-f][1,2,4]triazine-7-carboxamide trifluoroacetate] | 8
O=C(Nc1ccsc1C(F)(F)F)c1ccc2cnc(N3CCCNCC3)nn12 [Example 85, 2-(1,4-diazepan-1-yl)-N-[2-(trifluoromethyl)thiophen-3-yl]pyrrolo[2,1-f][1,2,4]triazine-7-carboxamide trifluoroacetate] | 2640
Cn1cc(NC(=O)c2ccc3cnc(N4C[C@@H]5CC[C@H]4CN5)nn23)c(C#N)n1 (single isomer, unassigned) [Example 46, N-(3-cyano-1-methyl-1H-pyrazol-4-yl)-2-[(1S,4S)- or (1R,4R)-2,5-diazabicyclo[2.2.2]oct-2-yl]pyrrolo[2,1-f][1,2,4]triazine-7-carboxamide trifluoroacetate] | 72
N#Cc1sccc1NC(=O)c1ccc2cnc(N3CC4CCC3CN4)nn12 (stereo not drawn) [Example 22, N-(2-cyanothiophen-3-yl)-2-(2,5-diazabicyclo[2.2.2]oct-2-yl)pyrrolo[2,1-f][1,2,4]triazine-7-carboxamide trifluoroacetate] | 399
Cn1cc(NC(=O)c2ccc3cnc(N4C[C@@H]5CC[C@H]4CN5)nn23)c(Br)n1 (single isomer, unassigned) [Example 63, N-(3-bromo-1-methyl-1H-pyrazol-4-yl)-2-[(1S,4S)- or (1R,4R)-2,5-diazabicyclo[2.2.2]oct-2-yl]pyrrolo[2,1-f][1,2,4]triazine-7-carboxamide trifluoroacetate] | 92
Cn1cc(NC(=O)c2ccc3cnc(N[C@@H]4CCCNC4)nn23)c(C(F)F)n1 [Example 16, N-[3-(difluoromethyl)-1-methyl-1H-pyrazol-4-yl]-2-[(3R)-piperidin-3-ylamino]pyrrolo[2,1-f][1,2,4]triazine-7-carboxamide trifluoroacetate] | 1
O=C(Nc1ccccc1C(F)F)c1ccc2cnc(N3C[C@H]4CC[C@@H]3CN4)nn12 (single isomer, unassigned) [Example 62, 2-[(1S,4S)- or (1R,4R)-2,5-diazabicyclo[2.2.2]oct-2-yl]-N-[2-(difluoromethyl)phenyl]-pyrrolo[2,1-f][1,2,4]triazine-7-carboxamide trifluoroacetate] | 944
N[C@H]1CCCC[C@H]1Nc1ncc2ccc(C(=O)Nc3ccsc3Br)n2n1 [Example 38, 2-{[(1R,2S)-2-aminocyclohexyl]amino}-N-(2-bromothiophen-3-yl)pyrrolo[2,1-f][1,2,4]triazine-7-carboxamide trifluoroacetate] | 7
O=C(Nc1ccccc1C(F)(F)F)c1ccc2cnc(N3CCCNCC3)nn12 [Example 28, 2-(1,4-diazepan-1-yl)-N-[2-(trifluoromethyl)phenyl]-pyrrolo[2,1-f][1,2,4]triazine-7-carboxamide trifluoroacetate] | 3980
Cn1cc(NC(=O)c2ccc3cnc(N[C@@H]4CCCC(F)(F)[C@@H]4N)nn23)c(C(F)F)n1 [Example 92, 2-{[(1R,2R)-2-amino-3,3-difluorocyclohexyl]amino}-N-[3-(difluoromethyl)-1-methyl-1H-pyrazol-4-yl]pyrrolo[2,1-f][1,2,4]triazine-7-carboxamide trifluoroacetate] | 46
O=C(Nc1ccccc1Br)c1ccc2cnc(N3C[C@H]4CC[C@@H]3CN4)nn12 (single isomer, unassigned) [Example 77, N-(2-bromophenyl)-2-[(1S,4S)- or (1R,4R)-2,5-diazabicyclo[2.2.2]oct-2-yl]pyrrolo[2,1-f][1,2,4]triazine-7-carboxamide trifluoroacetate] | 1960
Cn1cc(NC(=O)c2ccc3cnc(N[C@@H]4CCCC[C@@H]4N)nn23)c(Cl)n1 [Example 25, 2-{[(1R,2S)-2-aminocyclohexyl]amino}-N-(3-chloro-1-methyl-1H-pyrazol-4-yl)pyrrolo[2,1-f][1,2,4]triazine-7-carboxamide trifluoroacetate] | 1
